Earlier results on eight compounds are cited in patent US20240139197A1, “INHIBITION OF KDM5A FOR PROMOTING ANTIGEN PRESENTATION, INCREASING CD8+ T CELL INFILTRATION AND BOOSTING ANTI-TUMOR IMMUNE RESPONSE” (The Wistar Institute of Anatomy and Biology, priority 2022, published 2024).

Like-named read-outs stand apart in the source and are kept apart here.

Broadly, the IC50 is the midpoint of a concentration-inhibition curve.

Data set [1] concerns the target T1, KDM5A (Homo sapiens (Human), UniProt P29375). As to conditions: KDM5A inhibitors disclosed in Miyake et al; cited from earlier work.
In another data set the target is KDM4C (Homo sapiens (Human), UniProt Q9H3R0). Conditions: biochemical assay with pre-incubation; cited from earlier work.
Data set [2] addresses T1, KDM5A. Conditions: biochemical assay with pre-incubation; cited from earlier work.
The next data set deals with KDM5B (Homo sapiens (Human), UniProt Q9UGL1). As to conditions: biochemical assay with pre-incubation; cited from earlier work.
Chain of KDM5B (Q9UGL1 whole entry, species assumed): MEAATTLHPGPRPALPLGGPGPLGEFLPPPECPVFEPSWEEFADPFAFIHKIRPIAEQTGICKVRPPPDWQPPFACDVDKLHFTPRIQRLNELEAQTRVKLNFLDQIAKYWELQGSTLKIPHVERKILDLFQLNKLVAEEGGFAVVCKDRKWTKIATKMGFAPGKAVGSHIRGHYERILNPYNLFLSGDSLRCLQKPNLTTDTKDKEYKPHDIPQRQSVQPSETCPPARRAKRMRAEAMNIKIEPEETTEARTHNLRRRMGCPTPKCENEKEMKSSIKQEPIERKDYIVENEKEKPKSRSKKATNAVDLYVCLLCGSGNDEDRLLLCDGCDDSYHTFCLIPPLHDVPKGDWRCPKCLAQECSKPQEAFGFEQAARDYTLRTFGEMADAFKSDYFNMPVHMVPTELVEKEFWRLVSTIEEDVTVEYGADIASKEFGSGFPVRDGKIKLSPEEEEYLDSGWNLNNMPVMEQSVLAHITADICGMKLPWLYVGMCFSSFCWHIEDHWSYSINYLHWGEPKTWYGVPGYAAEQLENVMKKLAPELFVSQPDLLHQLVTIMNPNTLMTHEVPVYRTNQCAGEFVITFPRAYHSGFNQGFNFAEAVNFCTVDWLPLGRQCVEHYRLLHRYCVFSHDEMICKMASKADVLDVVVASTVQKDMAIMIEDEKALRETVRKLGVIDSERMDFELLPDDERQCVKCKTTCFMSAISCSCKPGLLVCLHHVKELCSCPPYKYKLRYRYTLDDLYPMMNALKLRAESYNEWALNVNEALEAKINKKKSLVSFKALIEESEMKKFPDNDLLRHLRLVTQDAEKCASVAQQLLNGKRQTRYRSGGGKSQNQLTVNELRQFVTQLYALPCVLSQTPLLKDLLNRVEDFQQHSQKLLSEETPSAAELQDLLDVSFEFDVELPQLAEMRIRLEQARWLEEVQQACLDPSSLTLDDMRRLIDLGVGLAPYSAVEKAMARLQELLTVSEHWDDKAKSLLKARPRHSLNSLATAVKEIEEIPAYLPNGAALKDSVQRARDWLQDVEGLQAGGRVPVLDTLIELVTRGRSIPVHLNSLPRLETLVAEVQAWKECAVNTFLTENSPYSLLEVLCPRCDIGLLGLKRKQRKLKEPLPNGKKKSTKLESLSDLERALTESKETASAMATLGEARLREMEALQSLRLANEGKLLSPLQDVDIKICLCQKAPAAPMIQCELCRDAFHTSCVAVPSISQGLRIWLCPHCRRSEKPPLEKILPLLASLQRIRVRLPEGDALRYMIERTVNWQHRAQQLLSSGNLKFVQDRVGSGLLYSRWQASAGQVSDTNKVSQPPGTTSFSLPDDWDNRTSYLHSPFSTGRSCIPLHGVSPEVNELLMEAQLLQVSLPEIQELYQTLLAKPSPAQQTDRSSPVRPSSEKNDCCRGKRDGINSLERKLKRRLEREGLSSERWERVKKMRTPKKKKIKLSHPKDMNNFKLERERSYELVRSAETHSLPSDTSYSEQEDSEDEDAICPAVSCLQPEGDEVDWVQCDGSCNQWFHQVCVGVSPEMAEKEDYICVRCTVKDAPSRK

Chain of KDM4C (Q9H3R0 whole entry, species assumed): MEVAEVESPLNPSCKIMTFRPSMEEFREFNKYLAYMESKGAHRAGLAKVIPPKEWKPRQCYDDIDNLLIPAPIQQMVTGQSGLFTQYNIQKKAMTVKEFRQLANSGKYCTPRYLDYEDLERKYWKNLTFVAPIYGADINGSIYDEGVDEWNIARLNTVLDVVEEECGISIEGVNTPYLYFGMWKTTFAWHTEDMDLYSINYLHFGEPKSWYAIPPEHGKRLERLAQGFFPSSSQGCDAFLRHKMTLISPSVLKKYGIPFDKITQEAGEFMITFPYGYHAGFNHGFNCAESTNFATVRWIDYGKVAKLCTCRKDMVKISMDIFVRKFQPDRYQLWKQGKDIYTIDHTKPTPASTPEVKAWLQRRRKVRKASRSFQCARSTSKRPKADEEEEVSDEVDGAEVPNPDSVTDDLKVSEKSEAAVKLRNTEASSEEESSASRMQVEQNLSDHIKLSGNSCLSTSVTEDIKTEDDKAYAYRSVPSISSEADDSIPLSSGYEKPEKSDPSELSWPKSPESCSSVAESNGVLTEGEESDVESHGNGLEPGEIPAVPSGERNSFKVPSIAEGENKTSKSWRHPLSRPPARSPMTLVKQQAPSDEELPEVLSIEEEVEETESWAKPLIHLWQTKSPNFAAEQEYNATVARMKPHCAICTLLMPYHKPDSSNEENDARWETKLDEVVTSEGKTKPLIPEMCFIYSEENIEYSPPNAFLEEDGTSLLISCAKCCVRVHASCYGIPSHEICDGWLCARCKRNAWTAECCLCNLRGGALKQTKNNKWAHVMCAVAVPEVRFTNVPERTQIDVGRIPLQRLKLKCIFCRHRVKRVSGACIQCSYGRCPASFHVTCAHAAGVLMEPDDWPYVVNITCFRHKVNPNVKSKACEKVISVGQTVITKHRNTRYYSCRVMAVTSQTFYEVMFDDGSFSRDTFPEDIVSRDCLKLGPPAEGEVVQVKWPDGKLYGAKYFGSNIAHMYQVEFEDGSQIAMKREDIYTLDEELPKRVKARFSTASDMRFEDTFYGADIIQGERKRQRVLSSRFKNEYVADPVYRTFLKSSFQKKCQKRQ
T1 sequence (P29375 whole entry): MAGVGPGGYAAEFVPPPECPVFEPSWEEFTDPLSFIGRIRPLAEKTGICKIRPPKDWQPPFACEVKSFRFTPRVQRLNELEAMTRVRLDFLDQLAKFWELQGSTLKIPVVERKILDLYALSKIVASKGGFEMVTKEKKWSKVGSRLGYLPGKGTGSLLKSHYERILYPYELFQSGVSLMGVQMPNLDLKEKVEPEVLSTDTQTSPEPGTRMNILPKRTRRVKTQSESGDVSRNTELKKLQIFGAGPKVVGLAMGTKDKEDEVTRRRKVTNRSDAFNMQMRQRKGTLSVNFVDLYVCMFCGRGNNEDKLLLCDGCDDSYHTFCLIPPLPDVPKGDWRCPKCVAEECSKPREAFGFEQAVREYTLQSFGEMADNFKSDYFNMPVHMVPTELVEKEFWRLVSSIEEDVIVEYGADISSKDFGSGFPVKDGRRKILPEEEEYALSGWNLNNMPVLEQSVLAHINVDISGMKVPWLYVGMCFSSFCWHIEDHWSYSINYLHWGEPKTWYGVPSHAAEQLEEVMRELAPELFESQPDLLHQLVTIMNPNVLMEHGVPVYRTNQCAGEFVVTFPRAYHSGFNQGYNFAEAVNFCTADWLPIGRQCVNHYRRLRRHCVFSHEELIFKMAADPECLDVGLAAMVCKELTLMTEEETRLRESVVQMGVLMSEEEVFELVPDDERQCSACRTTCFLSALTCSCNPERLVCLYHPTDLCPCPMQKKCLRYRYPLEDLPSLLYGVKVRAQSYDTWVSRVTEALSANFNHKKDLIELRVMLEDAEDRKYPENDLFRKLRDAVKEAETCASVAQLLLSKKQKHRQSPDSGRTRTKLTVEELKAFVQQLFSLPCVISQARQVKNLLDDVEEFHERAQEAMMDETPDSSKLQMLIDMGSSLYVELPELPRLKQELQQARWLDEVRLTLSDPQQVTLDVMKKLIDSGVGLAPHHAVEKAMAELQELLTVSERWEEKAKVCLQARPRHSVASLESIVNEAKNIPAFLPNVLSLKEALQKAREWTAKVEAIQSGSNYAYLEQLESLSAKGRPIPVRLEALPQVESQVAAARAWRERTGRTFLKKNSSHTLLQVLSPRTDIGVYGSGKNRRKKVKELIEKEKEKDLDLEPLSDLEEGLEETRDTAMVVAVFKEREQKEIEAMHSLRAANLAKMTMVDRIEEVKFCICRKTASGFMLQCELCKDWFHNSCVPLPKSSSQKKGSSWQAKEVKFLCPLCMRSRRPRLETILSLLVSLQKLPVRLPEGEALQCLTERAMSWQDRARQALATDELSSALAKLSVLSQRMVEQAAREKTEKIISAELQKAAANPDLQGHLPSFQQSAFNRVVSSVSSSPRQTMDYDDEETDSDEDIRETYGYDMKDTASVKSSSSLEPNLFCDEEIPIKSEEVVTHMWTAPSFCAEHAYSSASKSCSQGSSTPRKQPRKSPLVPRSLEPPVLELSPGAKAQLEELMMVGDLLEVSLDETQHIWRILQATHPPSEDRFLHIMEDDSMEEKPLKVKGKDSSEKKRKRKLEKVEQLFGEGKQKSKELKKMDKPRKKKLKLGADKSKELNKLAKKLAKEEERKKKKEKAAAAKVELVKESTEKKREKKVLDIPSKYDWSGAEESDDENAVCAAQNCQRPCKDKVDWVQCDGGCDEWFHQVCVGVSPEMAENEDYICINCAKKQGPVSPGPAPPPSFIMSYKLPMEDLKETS

For the compound `CCCCCCN(C)Cc1cc(-c2[nH]c3c(C#N)cnn3c(=O)c2C(C)C)cs1` [Compound 12], on KDM5A [1], the IC50 is 179 ± 12 nM.

In the case of `O=C(O)c1ccnc(-n2nccc2OCc2ccc(Cl)cc2OCC2CC2)c1` [Compound 36], the IC50 at KDM4C was 280 nM.

Regarding `CCCCCCN(C)CCc1ccc(-c2[nH]c3c(C#N)cnn3c(=O)c2C(C)C)cc1` [Compound 13], the IC50 on KDM5A [1] is 4.37 ± 0.19 nM.

Turning to `Cc1cc(Cl)ccc1COc1ccnn1-c1cc(C(=O)O)ccn1` [Compound 33], the 50% inhibitory concentration (IC50) on KDM5A [2] is 13 nM; at KDM5B, 2 nM; on KDM4C, 41 nM.

For `CCCCCCN(C)Cc1cccc(-c2[nH]c3c(C#N)cnn3c(=O)c2C(C)C)c1` [Compound 11], the IC50 on KDM5A [1] was 65.3 ± 8.6 nM.

For the compound `O=C(O)c1ccnc(-n2nccc2OCc2ccc(Cl)cc2F)c1` [Compound 32], the IC50 at KDM5A [2] is 18 nM; on KDM5B it was 4 nM.

On to `CCOc1cc(Cl)ccc1COc1ccnn1-c1cc(C(=O)O)ccn1` [Compound 35], for which the IC50 on KDM5B is 4 nM; at KDM4C, 78 nM.

`COc1cc(Cl)ccc1COc1ccnn1-c1cc(C(=O)O)ccn1` [Compound 34]: the values for the concentration for half-maximal inhibition (IC50) at KDM5A [2] and on KDM4C were 12 nM and 38 nM, respectively.
